This is an account of results in patent publication US20210267978A1, “NANOPARTICLE FORMULATIONS OF IKE AND METHODS OF USE THEREOF” (The Trustees of Columbia University in the City of New York, priority 2018, published 2021).

Data set [1] is described as follows: Erastin and IKE solubility measurements (nephelometry). The format is physicochemical. As for the experimental part: Solubility measurement samples were prepared in a 96-well Corning Costar plate with two at 1% and 5% DMSO v/v with a total sample volume of 200 μL in MilliQ water. A BMG Labtech NEPHELOstar nephelometer was used to measure turbidity of the samples with the following parameters per the instrument manufacturer: Gain=80, Laser Focus=2.50 mm, and Laser Intensity=90%. Samples were shaken in the nephelometer by orbital shaking for 3 s prior to the turbidity measurement. Sample values were blanked in the instrument software using the corresponding water and DMSO condition values. Turbidity 4000 NTU Calibration Standard-Formazin (Millipore-Sigma) was used as a positive control for all turbidity measurements. The turbidity of each sample was measured within 20 minutes of initial preparation. After the initial measurement, the sample plates were covered with aluminum sealing film and allowed to sit overnight at room temperature prior to re-measuring.

For a further data set, the system named is some cell lines. Conditions: cited from earlier work.
For the next data set, the system named is SUDHL6 cells. The experiment in a line: Immunofluorescence of MDA (mAb 1F83) on cells. In kind it is cell-based. The note with it: 10 μM IKE for 6 hours vs DMSO. As for the experimental part:
SUDHL-6 cells were treated with IKE. The cells were harvested by centrifugation and washed with PBS once. The cells were resuspended in PBS, fixed by adding equal volume of 4% paraformaldehyde (PFA), and incubated at room temperature for 15 min. The cells were washed with PBS/0.1% Tween 20 (PBST) twice, resuspended in 10% goat serum (ThermoFisher 50197Z) for 1 h. The cells were incubated with mouse mAb 1F83, which specifically recognizes malondialdehyde (MDA)-lysine adduct 4-methyl-1,4-dihydropyridine-3,5-dicarbaldehyde (MDHDC) (Yamada et al. 2001, Hyvarinen et al. 2014) (1:100 dilution) overnight at 4° C. The cells were washed with PBS three times by centrifugation. The cells were incubated with goat anti-mouse IgG H&L (Alexa Fluor 647) (Abcam ab150115) (1:1000) at room temperature for 1 h. The cells were washed with PBST twice by centrifugation, then resuspended in PBS in 24-well plate with poly-lysine-(Sigma Aldrich P4832)-coated cover slips and centrifuged at 1,000×g for 10 min. […] When applicable, line-scan analysis was performed on representative confocal microscopy images using Zeiss LSM software to qualitatively visualize fluorescence overlap. The intensity above threshold of the fluorescent signal of the bound antibodies was analyzed using NIH ImageJ software. Data were expressed as fold change compared with the vehicle.

Data set [2] can be described thus: Pharmacokinetic analysis in mice with three administration routes (plasma, LC-MS). In kind it is in vivo. The note with it: NOD/SCID mice; for AUC(0-t) / Cmax / Tmax / half-life / concentration at 8 h: mouse; for concentration at 8 h: read-out: Clast. As for the experimental part: NOD/SCID mice 12-weeks of age and ˜28 g weight were weighed before injection and divided into groups of 3 mice per cage. IKE was dissolved in 5% DMSO/95% Hank's Balanced Salt Solution (HBSS) (Thermo Fisher Scientific, 14025076), pH 4, to create a 5 mg/mL solution. 5% DMSO/95% HBSS at pH 4 solution (Vehicle 1) without IKE was used as vehicle. The solution was sterilized using a 0.22 μm Steriflip filter unit (Thomas Scientific 1189Q46). Mice were dosed using three different routes, IP and PO with 50 mg/kg IKE, and IV with 17 mg/kg IKE. Samples were collected at 0, 1, 3, 4, and 8 h from three mice per time point. Additionally, three mice per group were used as control by administration with equivalent amount of vehicle 1 by IP, PO, and IV, and samples were collected at 8 h. At the appropriate time, mice were sacrificed by CO2 asphyxiation for 3 min and ˜0.5 mL of blood was collected via cardiac puncture. Blood was immediately put into K3 EDTA micro tube (SARSTEDT 41.1504.105) and placed on ice. Samples were centrifuged for 10 min at 2,100×g at 4° C., plasma was then transferred to a clean tube. Plasma samples were flash frozen in liquid nitrogen and stored at −80° C. IKE was extracted from plasma by adding 900 μL acetonitrile to 100 μL plasma. Samples were mixed for at least 5 min by rotating at room temperature and were sonicated prior to […] for 10 min at 4,000×g and 4° C. The supernatant was removed and dried on a GeneVac evaporator overnight on an HPLC setting. After drying, the samples were resuspended in 100 μL of methanol and analyzed on the liquid chromatography mass spectrometry (LC-MS), with each sample analyzed twice. Quality control standard samples were prepared by dissolving IKE in 100 μL water and extraction with the same procedures to ensure that the extraction was efficient. LC-MS analysis was performed on a platform comprising a Thermo Scientific Dionex Ultimate 3000RS controlled by Chromeleon (Dionex) and a Bruker amazon SL ESI ion-trap mass spectrometer.
Chromatographic separation was performed at 20° C. on Agient Eclipse Plus C18 column (2.1×50 mm, 3.5 μm) at 20° C. over a 12 minute gradient elution. Mobile phase A consisted of water with 0.1% acetic acid v/v and mobile phase B was methanol with 0.1% acetic acid v/v. After injection, the gradient was held at 80% mobile phase A for 1 min. The gradient was then ramped in a linear fashion to 80% mobile phase over 0.5 min. Over the next 3.5 min, the gradient was ramped in linear fashion to 100% mobile phase B and held at 100% mobile phase B for 3.25 min. The gradient was then ramped in a linear fashion to 80% mobile phase over 0.5 min and held there for the duration of the run. The flow rate was set to 400 μL/min and injection volumes were 5 μL. The retention time for IKE in this gradient was 2.8 min.
Mass spectrometry analysis was performed on a Bruker Amazon SL (Billerca, MA) in positive ESI mode. Trap Control was used to control the ESI settings with the inlet capillary held at −4500 V and the end plate offset at −500 V. Nitrogen was used as the desolvation gas. Hystar v 3.2 was used to integrate the UHPLC and MS applications, and data analysis was performed with the Compass DataAnalysis software. The base peak chromatogram at m/z 655.2 with a width of ±0.1 was integrated and peak area quantified by standard curve.
Pharmacokinetics (PK) of IKE was assessed using Prism fitted with lognormal of one phase exponential decay.

Structures are written as SMILES. Like-named read-outs stand apart in the source and are kept apart here.

As usually defined, the AUC(0-t) is the area under the concentration-time curve up to a stated or last time point. Read a low AUC(0-t) as low exposure. The Cmax is the maximum level reached in the sampled fluid or tissue. Usually Tmax stands for the time at which the peak concentration occurs. As a reminder, the half-life is how long it takes for the measured level to halve. On to `CC(C)Oc1ccc(C(=O)Cn2ccnc2)cc1-n1c(CN2CCN(C(=O)COc3ccc(Cl)cc3)CC2)nc2ccccc2c1=O` [IKE, Imidazole ketone erastin], for which, in data set [1], the “water solubility (in words)” value is recorded as “soluble under acidic aqueous conditions, but not to the same degree under neutral aqueous conditions”. For the same compound, in the data set on some cell lines, the “potency improvement compared with erastin” value is reported as more than 100 ×. Further, the “MDA immunofluorescence intensity increase” value in the data set on SUDHL6 cells is recorded as 3.4 fold. Besides, in data set [2] (IP, 50 mg/kg IKE), the Tlast was 8 h, the AUC(0-t) turned out to be 53900 ng·h/mL, the highest level (Cmax) was 19500 ng/mL and the Tmax was found to be 18.6 min. In data set [2] (IP, 50 mg/kg IKE), the half-life is 109 min and the concentration at 8 h is 1530 ng/mL. For the same compound, in data set [2] (IV, 17 mg/kg IKE), the Tlast is recorded as 8 h, the AUC(0-t) was 17000 ng·h/mL, the peak level (Cmax) was 11400 ng/mL and the Tmax amounted to 0 min. Also, in data set [2] (IV, 17 mg/kg IKE), the half-life is 78.6 min and the concentration at 8 h worked out at 16 ng/mL. In addition, in data set [2] (PO, 50 mg/kg IKE), the Tlast came to 8 h, the AUC(0-t) is 5720 ng·h/mL, the highest level (Cmax) was 5200 ng/mL and the Tmax was determined as 43.2 min. In data set [2] (PO, 50 mg/kg IKE), the half-life is 57.6 min and the concentration at 8 h turned out to be 48 ng/mL.
